The target in experiment [1] is T1, p110δ/p85α (PI3K p110 delta) (Homo sapiens, UniProt O00329).
T1 construct: purchased Upstate Group, Millipore; Dundee, UK
The experiment in a line: PI3K isoform inhibition assay (fluorescence polarization PIP3 displacement; alternatively radiometric), p110 delta. It counts as biochemical. Particulars: for IC50: PI3K p110 delta binding IC50; for IC50 p110 alpha/IC50 p110 delta: delta/alpha selectivity: ratio of p110 alpha IC50 to p110 delta IC50. Here is the method: PI3K Isoform Inhibition Assay (p110 Alpha, Beta, Gamma, Delta: α, β, γ, δ)
PI3K enzymatic activity was assayed by measuring the amount of product phosphatidylinositol 3,4,5-phosphate (PIP3) formed from substrate 4,5 phosphatidylinositol 4,5-phosphate (PIP2) using a fluorescence polarization displacement assay. The decrease in fluorescence polarization of a fluorescent PIP3 probe is measured as it is displaced from a PIP3-binding protein GRP-1 detector by PI3K-catalyzed product. […] The kinase reactions were initiated by the addition of 40 ng/mL p110α/p85α, 300 ng/mL p110β/p85α, 40 ng/mL p110γ, or 40 ng/mL p110δ/p85α (Upstate Group, Millipore; Dundee, UK), and 10 μM PIP2 (Echelon Biosciences) to the wells. […] After 60 minutes of incubation at room temperature to allow equilibration of labeled and unlabeled PIP3 binding, the parallel and perpendicular components of the fluorescence emissions from each sample were measured at an excitation wavelength of 530 nm and an emission wavelength of 590 nm using an Envision fluorescent plate reader with a rhodamine filter (PerkinElmer Life and Analytical Sciences; Wellesley, Mass.). The assay is capable of detecting 0.1-2.0 μM PIP3 product. The IC50 values were obtained by fitting the dose-dependent inhibition data to a 4-parameter equation using Assay Explorer software (MDL, San Ramon, Calif.).
The Formula I compound was serially diluted in 100% DMSO. The kinase reaction was incubated for 1 h at room temperature, and the reaction was terminated by the addition of PBS. IC50 values were subsequently determined using sigmoidal dose-response curve fit (variable slope).
HT baculovirus expression system (GIBCO/BRL), and then purified for use in biochemical assays. The four Class I PI 3-kinases are cloned into baculovirus vectors as follows: […]
For orientation: Polarisation of emitted light reports the rotation of a fluorescent probe.

Experiment [2] deals with CD69 positive cells that are also CD20 positive, stimulated by anti-IgM, in human whole blood. The experiment in a line: CD69 whole blood assay (human whole blood, anti-IgM stimulated). It counts as cell-based. Particulars: concentration decreasing by 50% the percent CD69 positive of CD20 positive cells stimulated by anti-IgM, 20 hours, read-out: IC50 in the CD69 Whole Blood Assay. As for the experimental part:
Human blood is obtained from healthy volunteers, with the following restrictions: 1 week drug-free, non-smokers. Blood (approximately 20 mls to test 8 compounds) is collected by venipuncture into Vacutainer tubes with sodium heparin.
Solutions of Formula I compounds at 1000 or 2000 μM in PBS (20×), are diluted by three-fold serial dilutions in 10% DMSO in PBS for a nine point dose-response curve. An aliquot of 5.5 μl of each compound is added in duplicate to a 2 ml 96-well plate; 5.5 μl of 10% DMSO in PBS is added as control and no-stimulus wells. Human whole blood—HWB (100 μl) is added to each well. After mixing the plates are incubated at 37° C., 5% CO2, 100% humidity for 30 minutes. Goat F(ab′)2 anti-human IgM (10 μl of a […] solution, 50 μg/ml final) is added to each well (except the no-stimulus wells) with mixing and the plates are incubated for an additional 20 hours. At the end of the 20 hour incubation, samples are incubated with florescent labeled antibodies for 30 minutes, at 37° C., 5% CO2, 100% humidity. Include induced control, unstained and single stains for compensation adjustments and initial voltage settings. Samples are then lysed with Pharmingen Lyse according to the manufacturer's instructions. Samples are then transferred to a 96 well plate suitable to be run on the AMS 96 well system on the BD Calibur FACs machine. Data acquired and Mean Fluorescence Intensity values were obtained using Cell Quest Software. Results are initially analyzed by FACS analysis software (Flow Jo). […] The IC50 values are calculated by Activityl)ase using Xlfit version 3, equation 201.

Where only a bound is given, the exact number is not on record here.

T1 sequence (O00329 whole entry): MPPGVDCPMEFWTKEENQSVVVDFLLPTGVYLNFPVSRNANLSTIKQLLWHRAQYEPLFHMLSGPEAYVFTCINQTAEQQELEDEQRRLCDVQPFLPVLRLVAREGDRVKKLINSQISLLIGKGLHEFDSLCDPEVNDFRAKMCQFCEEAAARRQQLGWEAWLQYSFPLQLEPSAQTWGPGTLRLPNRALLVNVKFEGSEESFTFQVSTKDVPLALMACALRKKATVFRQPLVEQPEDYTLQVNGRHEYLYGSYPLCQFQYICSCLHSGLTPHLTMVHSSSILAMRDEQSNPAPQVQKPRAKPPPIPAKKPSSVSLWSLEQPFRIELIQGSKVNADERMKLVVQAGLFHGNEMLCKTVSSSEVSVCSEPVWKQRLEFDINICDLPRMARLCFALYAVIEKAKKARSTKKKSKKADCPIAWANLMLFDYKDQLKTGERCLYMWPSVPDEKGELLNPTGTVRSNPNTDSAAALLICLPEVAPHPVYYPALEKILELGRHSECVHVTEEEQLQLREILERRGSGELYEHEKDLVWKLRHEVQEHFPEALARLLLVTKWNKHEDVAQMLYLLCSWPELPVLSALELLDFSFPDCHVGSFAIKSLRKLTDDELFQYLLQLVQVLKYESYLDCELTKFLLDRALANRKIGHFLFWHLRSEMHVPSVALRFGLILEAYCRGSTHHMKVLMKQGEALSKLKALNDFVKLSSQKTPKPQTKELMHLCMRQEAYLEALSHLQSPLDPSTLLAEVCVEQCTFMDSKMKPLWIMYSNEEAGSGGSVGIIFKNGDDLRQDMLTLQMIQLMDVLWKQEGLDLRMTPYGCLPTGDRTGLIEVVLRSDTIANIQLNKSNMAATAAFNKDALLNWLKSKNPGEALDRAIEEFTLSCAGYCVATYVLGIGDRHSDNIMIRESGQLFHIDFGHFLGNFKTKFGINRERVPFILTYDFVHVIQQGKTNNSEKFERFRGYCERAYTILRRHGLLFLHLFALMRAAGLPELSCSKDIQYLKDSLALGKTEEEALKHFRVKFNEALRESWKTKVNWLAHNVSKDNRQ
T1 sequence (P27986 whole entry partner): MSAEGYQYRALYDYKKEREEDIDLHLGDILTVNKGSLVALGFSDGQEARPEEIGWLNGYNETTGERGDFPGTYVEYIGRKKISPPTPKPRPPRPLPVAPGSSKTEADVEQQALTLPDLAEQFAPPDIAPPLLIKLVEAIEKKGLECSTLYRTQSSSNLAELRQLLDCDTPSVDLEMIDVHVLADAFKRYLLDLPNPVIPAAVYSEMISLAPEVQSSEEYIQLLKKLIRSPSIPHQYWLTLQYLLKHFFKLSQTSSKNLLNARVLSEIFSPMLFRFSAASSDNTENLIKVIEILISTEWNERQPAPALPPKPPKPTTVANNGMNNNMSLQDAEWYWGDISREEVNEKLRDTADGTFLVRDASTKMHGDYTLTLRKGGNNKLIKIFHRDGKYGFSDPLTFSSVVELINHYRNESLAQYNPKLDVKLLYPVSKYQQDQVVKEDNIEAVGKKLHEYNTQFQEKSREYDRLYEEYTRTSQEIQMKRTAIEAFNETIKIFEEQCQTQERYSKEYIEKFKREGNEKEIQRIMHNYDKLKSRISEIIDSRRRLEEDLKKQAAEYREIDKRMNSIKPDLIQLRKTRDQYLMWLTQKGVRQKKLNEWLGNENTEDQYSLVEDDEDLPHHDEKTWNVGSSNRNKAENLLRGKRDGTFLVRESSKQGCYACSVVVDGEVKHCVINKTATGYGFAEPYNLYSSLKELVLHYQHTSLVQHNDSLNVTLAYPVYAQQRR

In general, IC50 refers to the concentration needed to halve the response being measured. With `c1cc(-c2nc(N3CCOCC3)c3sc(CN4CCC(N5CCOCC5)CC4)cc3n2)c2ccncc2c1` [Example 101, 4-(1-((2-(isoquinolin-5-yl)-4-morpholinothieno[3,2-d]pyrimidin-6-yl)methyl)piperidin-4-yl)morpholine], in experiment [1], the IC50 turned out to be 101 nM and the “IC50 p110 alpha/IC50 p110 delta” value is given as 53. For `Cc1c(CN2CCN(C(C)(C)C(N)=O)CC2)sc2c(N3CCOCC3)nc(-c3cncc4[nH]ccc34)nc12` [Example 112, 2-methyl-2-(4-((7-methyl-4-morpholino-2-(1H-pyrrolo[2,3-c]pyridin-4-yl)thieno[3,2-d]pyrimidin-6-yl)methyl)piperazin-1-yl)propanamide] the same measures were 1.8 nM and 29. As for `Cn1c(CN2CCC(C(C)(C)O)CC2)nc2c(N3CCOCC3)nc(-c3cnc(N)c4ccccc34)nc21` [Example 115, 2-(1-((2-(1-aminoisoquinolin-4-yl)-9-methyl-6-morpholino-9H-purin-8-yl)methyl)piperidin-4-yl)propan-2-ol], in experiment [1], the IC50 is 7.2 nM and the “IC50 p110 alpha/IC50 p110 delta” value worked out at 34. For `CC(C)(C(N)=O)N1CCN(Cc2nc3c(N4CCOCC4)nc(-c4cncc5[nH]ccc45)nc3s2)CC1` [Example 131, 2-methyl-2-(4-((7-morpholino-5-(1H-pyrrolo[2,3-c]pyridin-4-yl)thiazolo[5,4-d]pyrimidin-2-yl)methyl)piperazin-1-yl)propanamide] the same measures were 1.3 nM and 32. For `CN(C)C1CCN(Cc2cc3nc(-n4ccc5cnccc54)nc(N4CCOCC4)c3s2)CC1` [Example 149, N,N-dimethyl-1-((4-morpholino-2-(1H-pyrrolo[3,2-c]pyridin-1-yl)thieno[3,2-d]pyrimidin-6-yl)methyl)piperidin-4-amine] the same measures were 6.9 nM and 30. On to `Cn1c(CN2CCC(C(C)(C)O)CC2)nc2c(N3CCOCC3)nc(-c3n[nH]c4ccccc34)nc21` [Example 162, 2-(1-((2-(1H-indazol-3-yl)-9-methyl-6-morpholino-9H-purin-8-yl)methyl)piperidin-4-yl)propan-2-ol], for which, in experiment [1], the half-inhibitory concentration (IC50) is 14.6 nM and the “IC50 p110 alpha/IC50 p110 delta” value is on record as 191. The corresponding values for `COC(C)(C)C1CCN(Cc2nc3c(N4CCOCC4)nc(-c4c(C)oc5ccccc45)nc3n2C)CC1` [Example 200, 4-(8-((4-(2-methoxypropan-2-yl)piperidin-1-yl)methyl)-9-methyl-2-(2-methylbenzofuran-3-yl)-9H-purin-6-yl)morpholine] are 22.2 nM and 54. With `Cc1oc2ccccc2c1-c1nc(N2CCOCC2)c2nc(CN3CCN(C(C)(C)C(N)=O)CC3)sc2n1` [Example 211, 2-methyl-2-(4-((5-(2-methylbenzofuran-3-yl)-7-morpholinothiazolo[5,4-d]pyrimidin-2-yl)methyl)piperazin-1-yl)propanamide], in experiment [1], the 50% inhibitory concentration (IC50) was 9.7 nM and the “IC50 p110 alpha/IC50 p110 delta” value is over 300. The corresponding values for `CC(C)(C(N)=O)N1CCN(Cc2nc3nc(-c4cccc5nccn45)nc(N4CCOCC4)c3s2)CC1` [Example 248, 2-(4-((5-(imidazo[1,2-a]pyridin-5-yl)-7-morpholinothiazolo[4,5-d]pyrimidin-2-yl)methyl)piperazin-1-yl)-2-methylpropanamide] are 42.9 nM and 35. For `CCc1nc2ccccc2n1-c1nc(N2CCOCC2)c2nc(CN3CCC(C4COC4)CC3)n(C)c2n1` [Example 314, 4-(2-(2-ethyl-1H-benzo[d]imidazol-1-yl)-9-methyl-8-((4-(oxetan-3-yl)piperidin-1-yl)methyl)-9H-purin-6-yl)morpholine], the IC50 in experiment [2] came out at 44.1 nM.

On to `CCc1nc2ccccc2n1-c1nc(N2CCOCC2)c2nc(CN3CC([C@@H](O)C(C)C)C3)n(C)c2n1` [Example 388, (S)-1-(1-((2-(2-ethyl-1H-benzo[d]imidazol-1-yl)-9-methyl-6-morpholino-9H-purin-8-yl)methyl)azetidin-3-yl)-2-methylpropan-1-ol], for which the IC50 in experiment [2] came out at 51.1 nM.

With `CCc1nc2ccccc2n1-c1nc(N2CCOCC2)c2nc(CN3CCN(C(C)(C)CO)CC3)[nH]c2n1` [Example 489, 2-(4-((2-(2-ethyl-1H-benzo[d]imidazol-1-yl)-6-morpholino-9H-purin-8-yl)methyl)piperazin-1-yl)-2-methylpropan-1-ol], in experiment [1], the IC50 is 1.37 nM and the “IC50 p110 alpha/IC50 p110 delta” value is reported as 157. The corresponding values for `Cn1c(CN2CC(C3CCOCC3)C2)nc2c(N3CCOCC3)nc(-n3c(C4CC4)nc4ccccc43)nc21` [Example 499, 4-(2-(2-cyclopropyl-1H-benzo[d]imidazol-1-yl)-9-methyl-8-((3-(tetrahydro-2H-pyran-4-yl)azetidin-1-yl)methyl)-9H-purin-6-yl)morpholine] are 6.3 nM and 75. For `CCc1nc2ccccc2n1-c1nc(N2CCOCC2)c2nc(CC3CN(C4CCS(=O)(=O)CC4)C3)n(C)c2n1` [Example 501, 4-(2-(2-ethyl-1H-benzo[d]imidazol-1-yl)-9-methyl-8-((1-(tetrahydro-2H-(1,1-dioxo)-thiopyran-4-yl)azetidin-3-yl)methyl)-9H-purin-6-yl)morpholine] the same measures were 0.589 nM and 140. Regarding `CCc1nc2ccccc2n1-c1nc(N2CCOCC2)c2nc(CN3C[C@@H]4C[C@H]3CN4C(C)(C)CO)n(C)c2n1` [Example 521, 2-((1S,4S)-5-((2-(2-ethyl-1H-benzo[d]imidazol-1-yl)-9-methyl-6-morpholino-9H-purin-8-yl)methyl)-2,5-diazabicyclo[2.2.1]heptan-2-yl)-2-methylpropan-1-ol], in experiment [1], the 50% inhibitory concentration (IC50) was determined as 1.45 nM and the “IC50 p110 alpha/IC50 p110 delta” value turned out to be 150. For `CCc1nc2ccccc2n1-c1nc(N2CCOCC2)c2nc(CCN3CCOCC3(C)C)n(C)c2n1` [Example 535, 4-(2-(2-(2-ethyl-1H-benzo[d]imidazol-1-yl)-9-methyl-6-morpholino-9H-purin-8-yl)ethyl)-3,3-dimethylmorpholine] the same measures were 9.9 nM and 49.

As to `CCc1nc2ccccc2n1-c1nc(N2CCOCC2)c2nc(CC(=O)N3CCC(C(C)(C)O)CC3)sc2n1` [Example 549, 2-(5-(2-ethyl-1H-benzo[d]imidazol-1-yl)-7-morpholinothiazolo[5,4-d]pyrimidin-2-yl)-1-(4-(2-hydroxypropan-2-yl)piperidin-1-yl)ethanone], in experiment [1], the IC50 turned out to be 9.4 nM and the “IC50 p110 alpha/IC50 p110 delta” value was found to be 14. Regarding `CC(C)c1nc2ccccc2n1-c1nc(N2CCOCC2)c2nc(-c3cccnc3)n(C)c2n1` [Example 676, 4-(2-(2-isopropyl-1H-benzo[d]imidazol-1-yl)-9-methyl-8-(pyridin-3-yl)-9H-purin-6-yl)morpholine], in experiment [1], the 50% inhibitory concentration (IC50) worked out at 13.6 nM and the “IC50 p110 alpha/IC50 p110 delta” value is given as 14. For `COc1cccc(-c2nc3c(N4CCOCC4)nc(-n4c(C(C)C)nc5ccccc54)nc3n2C)c1` [Example 683, 4-(2-(2-isopropyl-1H-benzo[d]imidazol-1-yl)-8-(3-methoxyphenyl)-9-methyl-9H-purin-6-yl)morpholine] the same measures were 31.7 nM and 23. Consider `CCc1nc2ccccc2n1-c1nc(N2CCOCC2)c2nc(CN3CCC(C(C)(C)O)CC3)[nH]c2n1` [Example 701, 2-(1-((2-(2-ethyl-1H-benzo[d]imidazol-1-yl)-6-morpholino-9H-purin-8-yl)methyl)piperidin-4-yl)propan-2-ol], for which the “IC50 p110 alpha/IC50 p110 delta” value in experiment [1] came to 50.

The values are drawn from patent publication US8394796B2, “Bicyclic pyrimidine PI3K inhibitor compounds selective for P110 delta, and methods of use” (Genentech, Inc., priority 2009, dated 2013).
